In patent US12163158B2, “Organoid and method for producing same” (priority 2017, dated 2024):

Assays:
Assay type in all cases: cell-based
[1] = test system: mouse ES cell-derived heart organoid; assay: Ca2+ measurement of drug responsiveness in heart organoids; settings: 1 μM isoproterenol vs absence (control); 15-second recording; Fluo8 fluorescence; FIG. 40
Procedure: The heart organoids were washed twice with PBS and immersed in a 4 μM green fluorescent intracellular calcium indicator Fluo8 AM (acetoxymethyl) or Fluo8 AM/F127, freshly diluted with Tyrode's solution containing 1.8 mM Ca^2+, at 37° C. for 15 to 30 minutes. Thereafter, the heart organoids were washed twice with PBS, treated with 200 μL of Tyrode's solution, mounted, and observed with a fluorescence microscope (manufactured by Keyence Corporation). Specifically, first, Ca^2+ measurement was performed by the method described above (Ca Measurement) in the presence and absence (control) of 1 μM isoproterenol, which is an adrenergic […] agonist. A 15-second recording (movie) was taken, and image analysis was performed to detect the change in the intensity (Y-axis) of the fluorescent signal with time (X-axis).

[2] = test system: mouse ES cell-derived embryoid bodies; assay: Heart organoid formation from embryoid bodies on LN/ET gel in the presence of FGF protein; settings: bFGF instead of FGF4; not shown in the figure
Procedure: For the purpose of attempting to mimic such a process of developing a heart in the living body, as shown in the lower stage of FIG. 1, first, mouse ES cells were cultured in a low-binding U-bottom 96-well plate in the absence of leukemia inhibitory factor (LIP) to obtain complete embryoid bodies (EB) (1000 to 5000 cells/embryoid body). […]

[3] = test system: human iPS cells (253G1) embryoid bodies; assay: Formation of heart and lung organoids from human iPS cells under conditions I to IV; settings: embryoid bodies on gelated LN/ET complex; at collection (day 13 of culture or later); FIG. 49

CC(C)NCC(O)c1ccc(O)c(O)c1 (stereo not drawn) [isoproterenol]
change of Ca signal cycle in heart organoids [1]: shorten the Ca signal cycle (tachycardia-like)

bFGF: fibroblast growth factor 2 (FGF2, bFGF)
production of beating heart organoid [2]: successfully produced the same beating heart organoid

B1: condition II: additive to medium: FGF4 (30 ng/mL) (protein, UniProt P08620 31-206, looked up)
Fibroblast growth factor 4: APTAPNGTLEAELERRWESLVALSLARLPVAAQPKEAAVQSGAGDYLLGIKRLRRLYCNVGIGFHLQALPDGRIGGAHADTRDSLLELSPVERGVVSIFGVASRFFVAMSSKGKLYGSPFFTDECTFKEILLPNNYNAYESYKYPGMFIALSKNGKTKKGNRVSPTMKVTHFLPRL
efficiency of producing heart organoids and lung organoids (combined heart and lung, separated heart and lung) [3]: 62.5%
